Data reported in patent US20020122768A1, “Stable radiopharmaceutical compositions and methods for preparation thereof” (priority 2000, published 2002).

Tests used:
Assay type in all cases: physicochemical
[1] = Solution stability of ^177Lu-C at −78° C., RCP by radio-HPLC; conditions: ^177Lu-C prepared using 2 mg GA, degassed, second stabilizer (20 mg AA, 20 mg DSA, 10 mg 2,3,4-THBA, 10 mg 3,4,5-THBA) added post-labeling
[2] = as above; conditions: ^177Lu-C prepared using 2 mg GA
Protocol: (§1) The integrity of a radiopharmaceutical is measured by the radiochemical purity (RCP) of the radiolabeled compound using ITLC or more preferably HPLC. The advantage of using HPLC is that radio-impurities caused by radiolytic degradation can be separated from the radiopharmaceutical under optimized chromatographic conditions. […] The radiopharmaceutical compositions of this invention are effective in maintaining the long-term stability of samples that have been frozen, thawed, and re-tested periodically for 7 days.
(§2) The initial RCP of a radiopharmaceutical is largely dependent on radiolabeling conditions such as pH, heating temperature and time. Once a radiopharmaceutical is prepared in high yield, the stability of the radiopharmaceutical composition is measured by the` RCP change of the radiopharmaceutical over a certain period of time. For comparison purposes, sodium gentisate or sodium ascorbate was often used as the reference since they have been used in various radiopharmaceutical formulations.
(§3) HPLC method 3 used a HP-1100 HPLC system with a UV/visible detector (λ=220 nm), an IN-US radio-detector, and a Zorbax C18 column (4.6 mm×250 mm, 80 Å pore size). The flow rate was 1 mL/min with a gradient mobile phase starting from 90% solvent A (0.025 M ammonium acetate buffer, pH 6.8) and 10% solvent B (acetonitrile) at 0 min to 88% solvent A and 12% solvent B at 18 min, followed by an isocratic wash using 40% of solvent A and 60% solvent B from 19 to 25 min.
The ITLC method used Gelman Sciences silica-gel ITLC paper strips and 1:1 mixture of acetone and saline as eluant. By this method, the radiolabeled compounds migrate to the solvent front while [^90Y]/^177Lu]colloid and [^90Y]/^177Lu]acetate remain at the origin.
(§4) The 0.5 M ammonium acetate buffer (pH 8.0) was first degassed under vacuum for 1-2 min. COMPOUND C and gentisic acid (sodium salt, GA) were dissolved in the degassed buffer to give a concentration of 100 μg/mL for COMPOUND C and 2 mg/mL for GA. The resulting solution was immediately degassed under vacuum for another 1-2 min. To a clean sealed 5 mL vial was added 1.0 mL of the degassed 0.5 M ammonium acetate buffer (pH 8.0) containing 100 μg COMPOUND C and 2 mg GA. The solution was degassed again under vacuum. Upon addition of ˜20 μL of ^177LuCl3 solution (˜20 mCi) in 0.05 N HCl, the reaction mixture was heated at 100° C. for 5 min. After cooling to room temperature, a sample of the resulting solution was analyzed by HPLC (Method 3, injection volume=5 μL) and ITLC. […] To the solution above was added 0.5 mL of sodium ascorbate solution (40 mg/mL in 0.5 M ammonium acetate buffer, pH=7.4). The resulting mixture was then kept in a dry-ice box (−78° C.) for 7 days. Samples were analyzed at t=0, 3 and 7 days.
as §4, with “COMPOUND” for “The 0.5 M ammonium acetate buffer (pH 8.0) was first degassed under vacuum for 1-2 min. COMPOUND”, “1.0 μL” for “1.0 mL”, “of 2,3,4-THBA” for “of sodium ascorbate”, “solution (20” for “solution (40”
COMPOUND C and gentisic acid (sodium salt, GA) were dissolved in the degassed buffer to give a concentration of 100 μg/mL for COMPOUND C and 2 mg/mL for GA. The resulting solution was immediately degassed under vacuum for another 1-2 min. […]

[3] = Solution stability of ^90Y-B at −78° C., RCP by radio-HPLC; conditions: ^90Y-B prepared with GA
Protocol: as §1, §2
as §3, with “2” for “3”, “92%” for “90%”, “8%” for “10%”, “90%” for “88%”, “10%” for “12%”
The ITLC method used Gelman Sciences silica-gel ITLC paper strips and 1:1 mixture of acetone and saline as eluant. By this method, the radiolabeled compounds migrate to the solvent front while [^90Y]/^177Lu]colloid and [^90Y]/^177Lu]acetate remain at the origin. […]
The 0.5 M ammonium acetate buffer (pH 8.0) was first degassed under vacuum for 1-2 min. COMPOUND B and gentisic acid (sodium salt, GA) were dissolved in the degassed buffer to give a concentration of 100 μg/mL for COMPOUND B and 20 mg/mL for GA. The resulting solution was immediately degassed under vacuum for another 1-2 min. To a clean sealed 5 mL vial was added 1.0 mL of the degassed 0.5 M ammonium acetate buffer (pH 8.0) containing 100 μg COMPOUND B and 10 mg GA. The solution was degassed again under vacuum. Upon addition of ˜20 μL of ^90YCl3 solution (˜20 mCi) in 0.05 N HCl, the reaction mixture was heated at 100° C. for 5 min. After cooling to room temperature, a sample of the resulting solution was diluted 20-fold with saline containing gentisate (10 mg/mL), and was then analyzed by HPLC (Method 2, injection volume=1-2 μL) and ITLC. […] To the solution above was added 0.5 mL of sodium ascorbate solution (40 mg/mL in 0.5 M ammonium acetate buffer, pH=7.4). The resulting mixture was then kept in a dry-ice box (−78° C.) for 7 days. Samples were analyzed at t=0, 3 and 7 days.
The 0.5 M ammonium acetate buffer (pH 8.0) was first degassed under vacuum for 1-2 min. COMPOUND B and gentisic acid (sodium salt, GA) were dissolved in the degassed buffer to give a concentration of 100 μg/mL for COMPOUND B and 20 mg/mL for GA. The resulting solution was immediately degassed under vacuum for another 1-2 min. To a clean sealed 5 mL vial was added 1.0 mL of the degassed 0.5 M ammonium acetate buffer (pH 8.0) containing 100 μg COMPOUND B and 10 mg GA. The solution was degassed again under vacuum. Upon addition of ˜20 μL of ^90YCl3 solution (˜20 mCi) in 0.05 N HCl, the reaction mixture was heated at 100° C. for 5 min. After cooling to room temperature, a sample of the resulting solution was diluted 20-fold with saline containing gentisate (10 mg/mL), and was then analyzed by HPLC (Method 2, injection volume=1-2 μL) and ITLC. […] To the solution above was added 0.5 mL of 2,3,4-trihydroxybenzoic acid solution (20 mg/mL in 0.5 M ammonium acetate buffer, pH=6.5). The resulting mixture was then kept in a dry-ice box (−78° C.) for 7 days. Samples were analyzed at t=0, 3 and 7 days. […]

[4] = degassed, second stabilizer (20 mg AA, 20 mg DSA, 10 mg 2,3,4-THBA, 10 mg 3,4,5-THBA) added post-labeling
[5] = second stabilizer added post-labeling, t = 0 to 7 days
[6] = degassed, second stabilizer (20 mg AA, 20 mg DSA, 10 mg 2,3,4-THBA, 10 mg HABA) added post-labeling

- RCP (%) t = 1 day [1]: 97.7%
- RCP (%) t = 0 [2, 4]: 97.6%
- RCP (%) t = 3 days [2, 4]: 97.5%
- RCP (%) t = 7 days [2, 4]: 93.0%
- RCP (%) change [2, 5]: 4.6%
- RCP (%) t = 0 [3, 6]: 95.0%
- RCP (%) t = 3 days [3, 6]: 93.9%
- RCP (%) t = 7 days [3, 6]: 94.5%
- RCP (%) change [3, 5]: 0.5%
Compound: O=C1O[C@H]([C@@H](O)CO)C([O-])=C1O.[Na+] [AA, sodium ascorbate, reference compound]
